Read-outs that look alike come from different tables or passages of the source. Marks after values point to notes of the source that are not given here.
How the values were obtained:
Type in all cases: in vivo, human
[1] = Single 100 mg dose PK in SCD subjects; conditions: for AUC(0-t) / Cmax / half-life / Tmax: human; for AUC(0-t) / Cmax: 100 mg; for Tmax: median
Protocol: The PK profile of a single 100 mg dose in whole blood and plasma was evaluated using standard noncompartmental analysis. The preliminary PK parameter estimates of Compound I in whole blood from SCD subjects differed from healthy subjects in terms of elimination t½, AUC, Tmax, and blood to plasma ratio. In brief, the elimination t½ and Tmax were nearly 3× faster or occurred earlier, respectively, in SCD than in healthy subjects, and the blood to plasma ratio was about 30% of the values in healthy subjects (most likely due to the fewer RBCs compared to healthy subjects). For the plasma compartment, the differences between the 2 populations were most notable in terms of elimination t1/2, which again was about 2.5 times faster in SCD.

[2] = SCD cohort clinical measures of anemia and hemolysis (Hb, hematocrit, hemolysis markers)
Protocol: After a washout period of at least 56 days (so that elimination PK of Compound I could be assessed), the patients were administered a loading dose of 300 mg per day of Compound I for one day followed by 200 mg per day of Compound I for one day, and then were administered a maintenance dose of 50 mg per day of Compound I for five weeks (“MAD-1 Cohort”). The same patients then received another loading dose of 500 mg per day of Compound I for one day followed by 400 mg per day of Compound I for one day, and then were administered another maintenance dose of 100 mg per day of Compound I for three weeks (“MAD-2 Cohort”). The total treatment period of the MAD-1 Cohort and MAD-2 Cohort was 8 weeks.
Primary endpoints were safety and tolerability. Key secondary endpoints included PK and the relationship between time-matched Compound I concentrations and changes in clinical measures of anemia and hemolysis from baseline.
Following the conclusion of the MAD-2 study and a washout period of about 8 months, the selected patients (n=4) were administered a loading dose of 300 mg BID for 4 days, followed thereafter by a maintenance dose of 150 mg QD (MAD-3 Cohort).
Primary endpoints were safety and tolerability. Key secondary endpoints included PK and the relationship between time-matched Compound I concentrations and the changes in clinical measures of anemia and hemolysis from baseline.

[3] = Single ascending dose (SAD) study in healthy volunteers: safety and tolerability (TEAEs)
Protocol: To evaluate the safety and tolerability of single ascending doses of Compound I, 48 healthy volunteers (42 in the fasted state and 6 in the fed state) aged 18 to 55 years old were administered single ascending doses (50 mg to 2200 mg) of Compound I, while 16 healthy volunteers (14 in the fasted state and 2 in the fed state) aged 18 to 55 years old were administered placebo in a double blind, randomized, sequential manner.
Primary endpoints were safety and tolerability; key secondary endpoints included PK and effect of food (high-fat meal).
The few that were considered drug-related resolved with little to no intervention.

[4] = plasma, SCD subjects n=6, single 100 mg, geometric mean
[5] = whole blood, SCD single 100 mg, mean
[6] = whole blood, SCD subjects n=6, single 100 mg, blood, geometric mean
[7] = MAD-3 (150 mg QD) week 6, SCD patient 0003 (did not adhere to regimen)
[8] = MAD-3 (150 mg QD) week 6, SCD patient 0004
[9] = MAD-3 (150 mg QD) week 6, SCD patient 0005
[10] = six SCD patients, 8 weeks (MAD-1 then MAD-2)
[11] = HV single 50 mg, blinded, n=8 incl. placebo
[12] = HV single 50 mg, unblinded, n=6
[13] = HV single 100 mg, blinded, n=8 incl. placebo
[14] = HV single 100 mg, unblinded, n=6
[15] = HV single 200 mg fed (high-fat meal), blinded, n=8 incl. placebo
[16] = HV single 200 mg fed (high-fat meal), unblinded, n=6
[17] = HV single 200 mg, blinded, n=8 incl. placebo
[18] = HV single 200 mg, unblinded, n=6
[19] = HV single 400 mg, blinded, n=8 incl. placebo
[20] = HV single 400 mg, unblinded, n=6
[21] = HV single 800 mg, blinded, n=8 incl. placebo
[22] = HV single 800 mg, unblinded, n=6
[23] = HV single 1400 mg, blinded, n=8 incl. placebo
[24] = HV single 1400 mg, unblinded, n=6
[25] = HV single 2200 mg, blinded, n=8 incl. placebo
[26] = HV single 2200 mg, unblinded, n=6

In the case of `O=Cc1c(O)cccc1OC[C@@H]1COCCN1C(=O)c1cccnc1CCO` [Compound I, (S)-2-hydroxy-6-((4-(2-(2-hydroxyethyl)nicotinoyl)morpholin-3-yl)methoxy)benzaldehyde], the “B:P ratio (mean AUC0-t blood:mean AUC0-t plasma)” value ([1]; SCD single 100 mg) is reported as 69.3, the “B:P ratio AUC0-inf” value ([1]; SCD subjects n=6, single 100 mg) is reported as 69.3 and the t½ ([1]; SCD subjects n=6, single 100 mg, blood, geometric mean) is reported as 235 h. It also gave an AUC(0-t) [1, 4] of 67.2 µg·h/mL, a Cmax [1, 4] of 1010 ng/mL and an AUC(0-t) [1, 5] of 4690 µg·h/mL. It also gave a Cmax [1, 5] of 16700 ng/mL, an AUC(0-t) [1, 6] of 4540 µg·h/mL and a Cmax [1, 6] of 16200 ng/mL. The half-life ([1]; SCD single 100 mg, whole blood, mean, read-out: t1/2 (converted)) was 235 h, the Tmax ([1]; SCD single 100 mg, whole blood) was 8 h and the half-life ([1]; SCD subjects n=6, single 100 mg, plasma, geometric mean, read-out: t½ (converted)) was 252 h. The Tmax ([1]; SCD subjects n=6, single 100 mg, plasma) was 1.5 h, the “blood to plasma ratio in SCD as share of the values in healthy subjects” value ([1]; single 100 mg) was “about 30%” and the “elimination t1/2 in plasma, times faster in SCD” value ([1]; single 100 mg, plasma) was “about 2.5 times”. The “Tmax in whole blood, times earlier in SCD than in healthy subjects” value ([1]; single 100 mg, whole blood) was roughly 3 ×, the “elimination t½ in whole blood, times faster in SCD than in healthy subjects” value ([1]; single 100 mg, whole blood) was roughly 3 × and the “average hematocrit after washout (returned to baseline levels)” value ([2]; 5 SCD subjects, after 15-week washout, vs. 23.02%) was 23.46%. The Hb levels ([2]; MAD-3 (150 mg QD) week 6, SCD patient 0001) was 12.9 g/dL, the Hb levels [2, 7] was 8.9 g/dL and the Hematocrit [2, 7] was 27.6%. It also gave a Hb levels [2, 8] of 13.6 g/dL, a Hematocrit [2, 8] of 37.8% and a Hb levels [2, 9] of 10.9 g/dL. For the same compound, the Hematocrit [2, 9] was 30.9%, the “decrease in mean hemoglobin after the last dose” value ([2]; SCD, 15-week washout after MAD-2) was 2.2 g/dL and the “mean increase in hematocrit from baseline” value ([2]; SCD, baseline to end of week 8 of treatment) was 6.5%. The “hemolysis markers (reticulocytes, absolute reticulocytes, LDH, indirect bilirubin)” value ([2]; all six SCD subjects, 8 weeks (MAD-1 then MAD-2)) was “improvements in hemolysis markers”, the “Hb increase at the end of the study (maximum)” value [2, 10] was “up to 1.3 g/dL” and the “Hb mean increase at the end of the study” value [2, 10] was 2.3 g/dL. For the same compound, the “adverse events indicative of tissue hypoxia” value ([3]; HV SAD) was “no adverse events indicative of tissue hypoxia”, the “grade of adverse events (CTCAE v5.0)” value ([3]; HV SAD, blinded study) was “mostly grade 1 or 2” and the “Number of SAEs” value [3, 11] was 0. The “Number of TEAEs” value [3, 11] was 14, the “Number of TEAEs grade ≥ 3” value [3, 11] was 0 and the “Number of TEAEs leading to study drug discontinuation” value (from here on “Number of TEAEs leading”) [3, 11] was 0. The “Number of drug-related TEAEs” value [3, 11] was 2, the “Number of SAEs” value [3, 12] was 0 and the “Number of TEAEs” value [3, 12] was 11. The “Number of TEAEs grade ≥ 3” value [3, 12] was 0, the “Number of TEAEs leading” value [3, 12] was 0 and the “Number of drug-related TEAEs” value [3, 12] was 1. For the same compound, the “Number of SAEs” value [3, 13] was 0, the “Number of TEAEs” value [3, 13] was 13 and the “Number of TEAEs grade ≥ 3” value [3, 13] was 0. For the same compound, the “Number of TEAEs leading” value [3, 13] was 0, the “Number of drug-related TEAEs” value [3, 13] was 1 and the “Number of SAEs” value [3, 14] was 0. The “Number of TEAEs” value [3, 14] was 10, the “Number of TEAEs grade ≥ 3” value [3, 14] was 0 and the “Number of TEAEs leading” value [3, 14] was 0. For the same compound, the “Number of drug-related TEAEs” value [3, 14] was 1, the “Number of SAEs” value [3, 15] was 0 and the “Number of TEAEs” value [3, 15] was 8. For the same compound, the “Number of TEAEs grade ≥ 3” value [3, 15] was 1, the “Number of TEAEs leading” value [3, 15] was 0 and the “Number of drug-related TEAEs” value [3, 15] was 0. The “Number of SAEs” value [3, 16] was 0, the “Number of TEAEs” value [3, 16] was 7 and the “Number of TEAEs grade ≥ 3” value [3, 16] was 1. The “Number of TEAEs leading” value [3, 16] was 0, the “Number of drug-related TEAEs” value [3, 16] was 0 and the “Number of SAEs” value [3, 17] was 0. The “Number of TEAEs” value [3, 17] was 16, the “Number of TEAEs grade ≥ 3” value [3, 17] was 0 and the “Number of TEAEs leading” value [3, 17] was 0. For the same compound, the “Number of drug-related TEAEs” value [3, 17] was 0, the “Number of SAEs” value [3, 18] was 0 and the “Number of TEAEs” value [3, 18] was 15. The “Number of TEAEs grade ≥ 3” value [3, 18] was 0, the “Number of TEAEs leading” value [3, 18] was 0 and the “Number of drug-related TEAEs” value [3, 18] was 0. The “Number of TEAEs” value [3, 19] was 23^, the “Number of TEAEs grade ≥ 3” value [3, 19] was 1^ and the “Number of TEAEs leading” value [3, 19] was 0^. For the same compound, the “Number of drug-related TEAEs” value [3, 19] was 1^, the “Number of SAEs” value ([3]; HV single 400 mg, blinded, n=8 incl. placebo, SAE was a traumatic brain injury, not drug related) was 1^c and the “Number of TEAEs” value [3, 20] was 16^. The “Number of TEAEs grade ≥ 3” value [3, 20] was 1^, the “Number of TEAEs leading” value [3, 20] was 0^ and the “Number of drug-related TEAEs” value [3, 20] was 1^. The “Number of SAEs” value ([3]; HV single 400 mg, unblinded, n=6, SAE was a traumatic brain injury, not drug related) was 1^c, the “Number of SAEs” value [3, 21] was 0 and the “Number of TEAEs” value [3, 21] was 14. For the same compound, the “Number of TEAEs grade ≥ 3” value [3, 21] was 0, the “Number of TEAEs leading” value [3, 21] was 0 and the “Number of drug-related TEAEs” value [3, 21] was 3. For the same compound, the “Number of SAEs” value [3, 22] was 0, the “Number of TEAEs” value [3, 22] was 10 and the “Number of TEAEs grade ≥ 3” value [3, 22] was 0. For the same compound, the “Number of TEAEs leading” value [3, 22] was 0, the “Number of drug-related TEAEs” value [3, 22] was 3 and the “Number of SAEs” value [3, 23] was 0. The “Number of TEAEs” value [3, 23] was 29, the “Number of TEAEs grade ≥ 3” value [3, 23] was 0 and the “Number of TEAEs leading” value [3, 23] was 0. The “Number of drug-related TEAEs” value [3, 23] was 4, the “Number of SAEs” value [3, 24] was 0 and the “Number of TEAEs” value [3, 24] was 26. The “Number of TEAEs grade ≥ 3” value [3, 24] was 0, the “Number of TEAEs leading” value [3, 24] was 0 and the “Number of drug-related TEAEs” value [3, 24] was 4. The “Number of SAEs” value [3, 25] was 0, the “Number of TEAEs” value [3, 25] was 17 and the “Number of TEAEs grade ≥ 3” value [3, 25] was 0. For the same compound, the “Number of TEAEs leading” value [3, 25] was 0, the “Number of drug-related TEAEs” value [3, 25] was 4 and the “Number of SAEs” value [3, 26] was 0. For the same compound, the “Number of TEAEs” value [3, 26] was 18, the “Number of TEAEs grade ≥ 3” value [3, 26] was 0 and the “Number of TEAEs leading” value [3, 26] was 0. For the same compound, the “Number of drug-related TEAEs” value [3, 26] was 4.

— patent US20250041312A1, “METHODS OF ADMINISTERING A MODULATOR OF HEMOGLOBIN” (Global Blood Therapeutics, Inc., priority 2021, published 2025)
